Tests used:
Format in all cases: in vivo
Lolium multiflorum Lamk. = experiment: Composition activity test, soil sealing treatment; conditions: B 300 g a.i./ha
Description: (§1) are as follows, and the others were purchased from reagent companies. The technical materials were all dissolved in acetone and diluted with an aqueous solution containing 0.1% emulsifier Tween-80. The dilution is performed as required.
(§2) Weeds are cultivated in a controllable sunlight greenhouse at 20 to 30° C., in natural light, and relative humidity of 57% to 72%. […] The test soil was placed quantitatively to 3/4 of the pots and then watered from the bottom of the pots to completely wet the soil to saturation. The test weed seeds were germinated, and uniformly and quantitatively sowed on the surface, then covered with 0.5-2 cm soil according to the seed size, and ready-for use 72 hours after sowing.
(§3) 3 pots with 30 weed seeds per pot were treated in one treatment with 4 replications per treatment.
(§4) The well-sowed weeds were evenly placed on a platform with an area of 0.5 m^2, and a solution of agents was sprayed on the soil thereof by the 3WP-2000-type walking spray tower at a dosage of 450 kg/ha and at a spray pressure of 0.3 MPa. After all the solution was sprayed, the valve was closed. After 30 seconds, the door of the spray tower was opened, and the nutritional bowl was taken out. Then the valve was opened, and the spray tube was cleaned by spraying 50 ml of water.
(§5) A method for investigating absolute number was employed, wherein whole seedlings of survival weeds were cut off with a blade along the soil surface, and the fresh weight of the weeds was weighed with an analytical balance. For dead weeds, the fresh weight thereof was zero.
(§6) The investigation was performed after 21 days of the treatment for only once.
(§7) An optimum ratio of the two active ingredients was determined by the actual control effect, characteristics of herbicides, and balance of a corresponding formula. Wherein, in the formula, X represented the fresh weight inhibition rate of the active ingredient A in a dosage of P, and Y represented the fresh weight inhibition rate of the active ingredient B in a dosage of Q. The statistical results were shown in the table 6.

Eleusine indica = experiment: Composition activity test, post-emergence foliage spray
Leptochloa chinensis = experiment: Composition activity test, soil sealing treatment
Description: as §1, §2, §3, §4, §5, §6, §7

Eriochloa villosa = experiment: Composition activity test, post-emergence foliage spray
Capsella bursa-pastoris = experiment: as above
Conyza Canadensis = experiment: as above
Cyperus difformis = experiment: as above
Cyperus serotinus = experiment: as above
Amaranthus retroflexus = experiment: Composition activity test, soil sealing treatment
Description: as §1, §2, §3, §4, §5, §6, §7

Echinochloa crusgalli = experiment: Composition activity test, soil sealing treatment; conditions: B 600 g a.i./ha
Description: as §1, §2, §3, §4, §5, §6, §7

Cc1ccccc1CO[C@@H]1C[C@@]2(C(C)C)CC[C@]1(C)O2 (racemic) [cinmethylin]
Control effect (%) of B applied alone (B) (Lolium multiflorum Lamk.): 33.7%

CC1(C)CON(Cc2ccc(Cl)cc2Cl)C1=O [bixlozone]
Control effect (%) of B applied alone (B) (Eleusine indica; B 180 g a.i./ha): 36.7%

CCC(C)Nc1c([N+](=O)[O-])cc(C(C)(C)C)cc1[N+](=O)[O-] (stereo not shown) [butralin]
Control effect (%) of B applied alone (B) (Leptochloa chinensis; B 180 g a.i./ha): 47.4%

CCSC(C)CC1CC(=O)C(/C(CC)=N/OC/C=C/Cl)=C(O)C1 (stereo not shown) [clethodim]
Control effect (%) of B applied alone (B) (Eriochloa villosa; B 30 g a.i./ha): 35.5%

CC1(C)CON(Cc2ccccc2Cl)C1=O [clomazone]
Control effect (%) of B applied alone (B) (Eleusine indica; B 150 g a.i./ha): 46.5%

O=C(Nc1ccc(F)cc1F)c1cccnc1Oc1cccc(C(F)(F)F)c1 [diflufenican]
Control effect (%) of B applied alone (B) (Capsella bursa-pastoris; B 75 g a.i./ha): 33.1%

c1cc[n+]2c(c1)-c1cccc[n+]1CC2 [diquat dibromide monohydrate]
Control effect (%) of B applied alone (B) (Conyza Canadensis; B 300 g a.i./ha): 37.8%
Control effect (%) of B applied alone (B) (Cyperus difformis; B 300 g a.i./ha): 18.4%

CNC1=C(c2cccc(C(F)(F)F)c2)C(=O)C(c2ccccc2)O1 (stereo not shown) [flurtamone]
Control effect (%) of B applied alone (B) (Capsella bursa-pastoris; B 75 g a.i./ha): 56.7%

CP(=O)(O)CCC(N)C(=O)O (stereo not shown) [glufosinate ammonium]
Control effect (%) of B applied alone (B) (Conyza Canadensis; B 300 g a.i./ha): 57.8%
Control effect (%) of B applied alone (B) (Cyperus serotinus; B 300 g a.i./ha): 23.1%

CP(=O)(O)CC[C@H](N)C(=O)O.N [glufosinate-P-ammonium]
Control effect (%) of B applied alone (B) (Cyperus serotinus; B 150 g a.i./ha): 21.4%

O=C(O)CNCP(=O)(O)O [glyphosate]
Control effect (%) of B applied alone (B) (Conyza Canadensis; B 450 g a.i./ha): 51.2%

Cc1ccc2c(c1)[C@H](Nc1nc(N)nc(C(C)F)n1)[C@@H](C)C2 (stereo partly shown) [indaziflam]
Control effect (%) of B applied alone (B) (Amaranthus retroflexus; B 15 g a.i./ha): 49.3%

C[n+]1ccc(-c2cc[n+](C)cc2)cc1 [paraquat dichloride]
Control effect (%) of B applied alone (B) (Conyza Canadensis; B 225 g a.i./ha): 48.4%
Control effect (%) of B applied alone (B) (Cyperus difformis; B 150 g a.i./ha): 35.7%

CCC(CC)Nc1c([N+](=O)[O-])cc(C)c(C)c1[N+](=O)[O-] [pendimethalin]
Control effect (%) of B applied alone (B) (Leptochloa chinensis; B 150 g a.i./ha): 43.2%

O=C(Nc1ccc(F)cc1)c1cccc(Oc2cccc(C(F)(F)F)c2)n1 [picolinafen]
Control effect (%) of B applied alone (B) (Capsella bursa-pastoris; B 45 g a.i./ha): 44.4%

CCCN(CCC)C(=O)SCc1ccccc1 [prosulfocarb]
Control effect (%) of B applied alone (B) (Echinochloa crusgalli): 32.6%

COC(=O)[C@@H](C)Oc1ccc(Oc2cnc3cc(Cl)ccc3n2)cc1 [quizalofop-P-methyl]
Control effect (%) of B applied alone (B) (Eriochloa villosa; B 15 g a.i./ha): 41.7%

CCC/C(=N\OCC)C1=C(O)CC(CC(C)SCC)CC1=O (stereo not shown) [sethoxydim]
Control effect (%) of B applied alone (B) (Eriochloa villosa; B 45 g a.i./ha): 36.7%

Cc1cc(C)cc(OCC(C)Nc2nc(N)nc(C(C)(C)F)n2)c1 (stereo not shown) [triaziflam]
Control effect (%) of B applied alone (B) (Amaranthus retroflexus; B 30 g a.i./ha): 42.1%
